{"source": "patent US6989138B2", "about": "“Stabilization of radiopharmaceutical compositions using hydrophilic thioethers and hydrophilic 6-hydroxy chromans” (Diatide, Inc., priority 2000, dated 2006)", "assay": "Radiochemical purity (RCP) of 99mTc-depreotide kits with gentisic acid, reversed phase HPLC", "format": "physicochemical", "conditions": "when included in formulated kits", "protocol": "Lyophilized kit vials were prepared containing depreotide, GA, and other components as described in Table 1. Formulations were adjusted to pH 7.4 or 8.5 (as noted) prior to lyophilization.", "data": [{"smiles": "O=C(O)c1cc(O)ccc1O", "note": "[gentisic acid, Gentisic acid]", "values": [{"measurement": "effect on radiolabelling yield and stability of 99mTc-depreotide", "value": "decreases the radiolabelling yield and the stability"}]}]}
